Data from patent US20170190671A1, “BIS(ARYL)CATECHOL DERIVATIVES AS HERBICIDES” (E I DU PONT DE NEMOURS AND COMPANY, priority 2014, published 2017).

Tests used:
Test in all cases: Test C postemergence
Assay type in all cases: in vivo
[1] = tested on: oilseed rape (Brassica napus); conditions: Brassica napus, post-emergence, Postemergence, scale 0 to 100, read-out: Plant response rating, Oilseed Rape
Procedure, shortened: (§1)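 Seeded loam-sand soil (preemergence) or young potted plants of 2-18 cm (postemergence) received test chemical formulated with surfactant in a non-phytotoxic solvent. Pots were kept in the greenhouse for 13-15 days before a visual 0-100 control rating relative to controls.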

[2] = tested on: large (Lg) crabgrass (Digitaria sanguinalis); conditions: Digitaria sanguinalis, post-emergence, 336 h, Postemergence, scale 0 to 100, read-out: Plant response rating, Crabgrass, Large
Procedure, shortened: as §1

[3] = tested on: yellow nutsedge (Cyperus esculentus); conditions: Cyperus, post-emergence, 336 h, Postemergence, scale 0 to 100, read-out: Plant response rating, Nutsedge, Yellow
Procedure, shortened: as §1

[4] = tested on: Italian ryegrass (Lolium multiflorum); conditions: Lolium multiflorum, post-emergence, 336 h, Postemergence, scale 0 to 100, read-out: Plant response rating, Ryegrass, Italian
Procedure, shortened: as §1

[5] = tested on: johnsongrass (Sorghum halepense); conditions: Sorghum halepense, post-emergence, 336 h, Postemergence, scale 0 to 100, read-out: Plant response rating, Johnsongrass
Procedure, shortened: as §1

kochia (Kochia scoparia) = conditions: Bassia scoparia, post-emergence, Postemergence, scale 0 to 100, read-out: Plant response rating, Kochia
Procedure, shortened: as §1

[6] = tested on: velvetleaf (Abutilon theophrasti); conditions: Abutilon theophrasti, post-emergence, Postemergence, scale 0 to 100, read-out: Plant response rating, Velvetleaf
Procedure, shortened: as §1

wild oat (Avena fatua) = conditions: Avena fatua, post-emergence, Postemergence, scale 0 to 100, read-out: Plant response rating, Oat, Wild
Procedure, shortened: as §1

[7] = tested on: pigweed (Amaranthus retroflexus); conditions: Amaranthus retroflexus, post-emergence, 336 h, Postemergence, scale 0 to 100, read-out: Plant response rating, Pigweed
Procedure, shortened: as §1

[8] = tested on: chickweed (common chickweed, Stellaria media); conditions: Stellaria media, post-emergence, Postemergence, scale 0 to 100, read-out: Plant response rating, Chickweed
Procedure, shortened: as §1

[9] = tested on: giant foxtail (Setaria faberii); conditions: Setaria faberi, post-emergence, 336 h, Postemergence, scale 0 to 100, read-out: Plant response rating, Foxtail, Giant
Procedure, shortened: as §1

[10] = tested on: winter wheat (Triticum aestivum); conditions: Triticum aestivum, post-emergence, 336 h, Postemergence, scale 0 to 100, read-out: Plant response rating, Wheat
Procedure, shortened: as §1

[11] = tested on: barnyardgrass (Echinochloa crus-galli); conditions: Echinochloa crus-galli, post-emergence, Postemergence, scale 0 to 100, read-out: Plant response rating, Barnyardgrass
Procedure, shortened: as §1

[12] = tested on: morningglory (Ipomoea coccinea); conditions: Ipomoea, post-emergence, 336 h, Postemergence, scale 0 to 100, read-out: Plant response rating, Morningglory
Procedure, shortened: as §1

[13] = tested on: blackgrass (Alopecurus myosuroides); conditions: Alopecurus myosuroides, post-emergence, 336 h, Postemergence, scale 0 to 100, read-out: Plant response rating, Blackgrass
Procedure, shortened: as §1

Fc1cnc(Oc2c(F)cccc2Oc2ncc(Cl)cn2)nc1 [Compound 23]
plant injury at 31 g/ha ([1]; 31 g ai/ha): 10% | plant injury at 62 g/ha ([1]; 62 g ai/ha): 30% | plant injury at 125 g/ha ([1]; 125 g ai/ha): 50% | plant injury at 250 g/ha ([1]; 250 g ai/ha): 45% | pest or weed control at 31 g/ha ([2]; 31 g ai/ha): 5% | pest or weed control at 62 g/ha ([2]; 62 g ai/ha): 5% | pest or weed control at 125 g/ha ([2]; 125 g ai/ha): 10% | pest or weed control at 250 g/ha ([2]; 250 g ai/ha): 30% | pest or weed control at 31 g/ha ([3]; 31 g ai/ha): 0% | pest or weed control at 62 g/ha ([3]; 62 g ai/ha): 0% | pest or weed control at 125 g/ha ([3]; 125 g ai/ha): 5% | pest or weed control at 250 g/ha ([3]; 250 g ai/ha): 5% | pest or weed control at 31 g/ha ([4]; 31 g ai/ha): 0% | pest or weed control at 62 g/ha ([4]; 62 g ai/ha): 0% | pest or weed control at 125 g/ha ([4]; 125 g ai/ha): 0% | pest or weed control at 250 g/ha ([4]; 250 g ai/ha): 35% | pest or weed control at 31 g/ha ([5]; 31 g ai/ha): 0% | pest or weed control at 62 g/ha ([5]; 62 g ai/ha): 0% | pest or weed control at 125 g/ha ([5]; 125 g ai/ha): 5% | pest or weed control at 250 g/ha ([5]; 250 g ai/ha): 5% | pest or weed control at 31 g/ha (kochia (Kochia scoparia); 31 g ai/ha): 5% | pest or weed control at 62 g/ha (kochia (Kochia scoparia); 62 g ai/ha): 70% | pest or weed control at 125 g/ha (kochia (Kochia scoparia); 125 g ai/ha): 80% | pest or weed control at 250 g/ha (kochia (Kochia scoparia); 250 g ai/ha): 90% | pest or weed control at 31 g/ha ([6]; 31 g ai/ha): 70% | pest or weed control at 62 g/ha ([6]; 62 g ai/ha): 70% | pest or weed control at 125 g/ha ([6]; 125 g ai/ha): 75% | pest or weed control at 250 g/ha ([6]; 250 g ai/ha): 90% | pest or weed control at 31 g/ha (wild oat (Avena fatua); 31 g ai/ha): 0% | pest or weed control at 62 g/ha (wild oat (Avena fatua); 62 g ai/ha): 0% | pest or weed control at 125 g/ha (wild oat (Avena fatua); 125 g ai/ha): 0% | pest or weed control at 250 g/ha (wild oat (Avena fatua); 250 g ai/ha): 5% | pest or weed control at 31 g/ha ([7]; 31 g ai/ha): 70% | pest or weed control at 62 g/ha ([7]; 62 g ai/ha): 80% | pest or weed control at 125 g/ha ([7]; 125 g ai/ha): 95% | pest or weed control at 250 g/ha ([7]; 250 g ai/ha): 100% | pest or weed control at 31 g/ha ([8]; 31 g ai/ha): 50% | pest or weed control at 62 g/ha ([8]; 62 g ai/ha): 50% | pest or weed control at 125 g/ha ([8]; 125 g ai/ha): 60% | pest or weed control at 250 g/ha ([8]; 250 g ai/ha): 60% | pest or weed control at 31 g/ha ([9]; 31 g ai/ha): 0% | pest or weed control at 62 g/ha ([9]; 62 g ai/ha): 5% | pest or weed control at 125 g/ha ([9]; 125 g ai/ha): 10% | pest or weed control at 250 g/ha ([9]; 250 g ai/ha): 35% | plant injury at 31 g/ha ([10]; 31 g ai/ha): 0% | plant injury at 62 g/ha ([10]; 62 g ai/ha): 0% | plant injury at 125 g/ha ([10]; 125 g ai/ha): 0% | plant injury at 250 g/ha ([10]; 250 g ai/ha): 5% | pest or weed control at 31 g/ha ([11]; 31 g ai/ha): 5% | pest or weed control at 62 g/ha ([11]; 62 g ai/ha): 10% | pest or weed control at 125 g/ha ([11]; 125 g ai/ha): 10% | pest or weed control at 250 g/ha ([11]; 250 g ai/ha): 25% | pest or weed control at 31 g/ha ([12]; 31 g ai/ha): 60% | pest or weed control at 62 g/ha ([12]; 62 g ai/ha): 75% | pest or weed control at 125 g/ha ([12]; 125 g ai/ha): 85% | pest or weed control at 250 g/ha ([12]; 250 g ai/ha): 95% | pest or weed control at 31 g/ha ([13]; 31 g ai/ha): 0% | pest or weed control at 62 g/ha ([13]; 62 g ai/ha): 5% | pest or weed control at 125 g/ha ([13]; 125 g ai/ha): 5% | pest or weed control at 250 g/ha ([13]; 250 g ai/ha): 30%
